Experimental data from PubChem BioAssay (NCI).
“And” between values parts separate entries of the source, which are not always exact repeats. Equal entries are not always repeated.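 Protocol summary: plate cells (96-well), add compound at 5 concentrations, incubate 48 h, interpolate endpoints linearly. At the GI50, growth is halved. The concentration for full growth arrest is given as TGI.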

How the values were obtained:
Assay in all cases: NCI-60 cell line screen, 48 h
SR leukemia = tested on: SR leukemia
OVCAR-8 ovarian = tested on: OVCAR-8 ovarian
HCT-116 colon = tested on: HCT-116 colon
OVCAR-4 ovarian = tested on: OVCAR-4 ovarian
ACHN renal = tested on: ACHN renal
KM20L2 colon = tested on: KM20L2 colon
NCI-H226 lung = tested on: NCI-H226 lung
MDA-N = tested on: MDA-N
DU-145 prostate = tested on: DU-145 prostate
MCF7 breast = tested on: MCF7 breast

`Cc1ccc(CCC(=O)C(=O)O)s1` showed a TGI (SR leukemia) greater than 100 µM, a TGI (OVCAR-8 ovarian) greater than 100 µM and a TGI (HCT-116 colon) greater than 100 µM. For the same compound, the TGI (OVCAR-4 ovarian) was greater than 100 µM, the TGI (ACHN renal) was greater than 100 µM and the TGI (KM20L2 colon) was greater than 100 µM.
`O=c1oc2ccccc2c(O)c1C(C/C(CCN1CCCC1)=N\Nc1ccccc1)c1ccccc1` (stereo unspecified) was tested, and the TGI (NCI-H226 lung) was greater than 100 µM, the TGI (SR leukemia) was 75.1 µM and the TGI (OVCAR-8 ovarian) was greater than 100 µM. For the same compound, the TGI (HCT-116 colon) was greater than 100 µM, the TGI (OVCAR-4 ovarian) was greater than 100 µM and the TGI (ACHN renal) was greater than 100 µM. For the same compound, the TGI (KM20L2 colon) was greater than 100 µM.
`C=C(C(=O)O[C@H]1C(=O)C2=C(C)CCC3C(=C)C(=O)O[C@@H]3C2[C@]1(C)O)C1CC[C@]2(C)CCCC(=C)[C@H]2C1` (stereo partly specified) was tested, and the GI50 (NCI-H226 lung) was 6.81 µM, the TGI (NCI-H226 lung) was 16 µM and 36.6 µM and the TGI (SR leukemia) was greater than 100 µM. For the same compound, the GI50 (MDA-N) was 0.117 µM, the TGI (MDA-N) was 11.6 µM and 8.45 µM and the GI50 (OVCAR-8 ovarian) was 5.67 µM. The TGI (OVCAR-8 ovarian) was 12.3 µM and 13.1 µM, the GI50 (HCT-116 colon) was 2090 nM and the TGI (HCT-116 colon) was 9.96 µM and 8.4 µM. For the same compound, the GI50 (OVCAR-4 ovarian) was 6.69 µM, the TGI (OVCAR-4 ovarian) was 13.4 µM and 11.3 µM and the GI50 (DU-145 prostate) was 5.37 µM. For the same compound, the TGI (DU-145 prostate) was 11.3 µM and 10.3 µM, the GI50 (ACHN renal) was 5.19 µM and the TGI (ACHN renal) was 11 µM and 8.85 µM. For the same compound, the GI50 (MCF7 breast) was 1.75 µM and the TGI (MCF7 breast) was 8.81 µM and 10.8 µM.
Work on `CC1(C)N=C(c2ccccn2)C(c2ccccn2)=NC1(C)C` yielded a TGI (NCI-H226 lung) greater than 100 µM, a TGI (SR leukemia) greater than 100 µM and a TGI (OVCAR-8 ovarian) greater than 100 µM. The TGI (HCT-116 colon) was greater than 100 µM, the TGI (OVCAR-4 ovarian) was greater than 100 µM and the TGI (ACHN renal) was greater than 100 µM. For the same compound, the TGI (KM20L2 colon) was greater than 100 µM.
`CC(=O)OC1COC(Nc2nc(N)n(C)c(=O)c2N=O)C(OC(C)=O)C1OC(C)=O` (stereo unspecified) gave a TGI (NCI-H226 lung) greater than 10 µM, a TGI (SR leukemia) greater than 10 µM and a TGI (MDA-N) greater than 10 µM. For the same compound, the TGI (OVCAR-8 ovarian) was greater than 10 µM, the TGI (HCT-116 colon) was greater than 10 µM and the TGI (OVCAR-4 ovarian) was greater than 10 µM. The TGI (DU-145 prostate) was greater than 10 µM, the TGI (ACHN renal) was greater than 10 µM and the TGI (MCF7 breast) was greater than 10 µM.
`C=CCC(C(=O)Nc1cccc2[nH]cnc12)C(=O)OCC` (stereo unspecified) showed a TGI (NCI-H226 lung) greater than 100 µM, a TGI (SR leukemia) greater than 100 µM and a TGI (MDA-N) greater than 100 µM. It also gave a TGI (OVCAR-8 ovarian) greater than 100 µM, a TGI (HCT-116 colon) greater than 100 µM and a TGI (OVCAR-4 ovarian) greater than 100 µM. The TGI (DU-145 prostate) was greater than 100 µM, the TGI (ACHN renal) was greater than 100 µM and the TGI (MCF7 breast) was greater than 100 µM.
With `CC(=O)/C(=C/N1CCNC1=S)C(=O)Nc1ccccc1C` the TGI (NCI-H226 lung) was greater than 100 µM, the TGI (SR leukemia) was greater than 100 µM and the TGI (MDA-N) was greater than 100 µM. For the same compound, the TGI (OVCAR-8 ovarian) was greater than 100 µM, the TGI (HCT-116 colon) was greater than 100 µM and the TGI (OVCAR-4 ovarian) was greater than 100 µM. For the same compound, the TGI (DU-145 prostate) was greater than 100 µM, the TGI (ACHN renal) was greater than 100 µM and the TGI (MCF7 breast) was greater than 100 µM.
Compound `CN1C/C(=C\C=C\c2ccccc2)C(=O)/C(=C/C=C/c2ccccc2)C1` has a TGI (NCI-H226 lung) greater than 100 µM, a TGI (OVCAR-8 ovarian) greater than 100 µM and a TGI (HCT-116 colon) greater than 100 µM. It also gave a TGI (OVCAR-4 ovarian) greater than 100 µM, a TGI (ACHN renal) greater than 100 µM and a TGI (KM20L2 colon) greater than 100 µM.
For `C[C@H]1COC2=C1C(=O)C(=O)c1c2ccc2c1CCCC2(C)C`, the TGI (NCI-H226 lung) was 24.1 µM, the TGI (SR leukemia) was greater than 42.7 µM and the TGI (MDA-N) was 3.26 µM. The TGI (OVCAR-8 ovarian) was 22.9 µM, the TGI (HCT-116 colon) was 46.3 µM and the TGI (OVCAR-4 ovarian) was greater than 100 µM. For the same compound, the TGI (DU-145 prostate) was 2.08 µM, the TGI (ACHN renal) was greater than 81.7 µM and the TGI (MCF7 breast) was 7.88 µM.
Work on `Brc1ccc2c(-c3csc(-c4c[nH]c5ccccc45)n3)c[nH]c2c1` yielded a TGI (NCI-H226 lung) of 34 µM, a GI50 (SR leukemia) of 6.36 µM and a TGI (SR leukemia) of 21.7 µM. The GI50 (MDA-N) was 19.2 µM, the TGI (MDA-N) was 39.8 µM and the TGI (OVCAR-8 ovarian) was 33.1 µM. For the same compound, the TGI (HCT-116 colon) was 29.6 µM, the TGI (OVCAR-4 ovarian) was 39.8 µM and the TGI (DU-145 prostate) was 32.9 µM. It also gave a TGI (ACHN renal) of 32.1 µM, a GI50 (MCF7 breast) of 16.7 µM and a TGI (MCF7 breast) of 37.1 µM.
`CC1(C)CCc2c(c(N=Nc3ccc(F)cc3)c3ccccc3c2O)O1` gave a TGI (NCI-H226 lung) greater than 100 µM, a TGI (SR leukemia) of 77.4 µM and a TGI (MDA-N) of 31.5 µM. The TGI (OVCAR-8 ovarian) was greater than 100 µM, the TGI (HCT-116 colon) was greater than 100 µM and the TGI (OVCAR-4 ovarian) was greater than 100 µM. It also gave a TGI (DU-145 prostate) of 35.8 µM, a TGI (ACHN renal) greater than 100 µM and a TGI (MCF7 breast) greater than 100 µM.
For `O=C1c2ccccc2C(=O)c2[nH]c(Cc3ccc(F)cc3)nc21`, the TGI (NCI-H226 lung) was 45.9 µM, the TGI (SR leukemia) was 55.5 µM and the TGI (OVCAR-8 ovarian) was 35.3 µM. For the same compound, the TGI (HCT-116 colon) was 42.3 µM, the TGI (OVCAR-4 ovarian) was 34.9 µM and the TGI (ACHN renal) was 31.2 µM. It also gave a TGI (KM20L2 colon) of 34.4 µM.
Work on `O=C1NCCS(=O)(=O)N2CCC[C@@H]12` yielded a TGI (NCI-H226 lung) greater than 100 µM, a TGI (SR leukemia) greater than 100 µM and a TGI (OVCAR-8 ovarian) greater than 100 µM. It also gave a TGI (HCT-116 colon) greater than 100 µM, a TGI (OVCAR-4 ovarian) greater than 100 µM and a TGI (ACHN renal) greater than 100 µM. The TGI (KM20L2 colon) was greater than 100 µM.
`Cc1sc2nc3n(c(=O)c2c1C)N=CN(c1ccc(F)cc1)C3` showed a TGI (NCI-H226 lung) greater than 100 µM, a TGI (SR leukemia) greater than 100 µM and a TGI (MDA-N) greater than 100 µM. It also gave a TGI (OVCAR-8 ovarian) greater than 100 µM, a TGI (HCT-116 colon) of 49 µM and a TGI (OVCAR-4 ovarian) of 38.5 µM. It also gave a TGI (DU-145 prostate) greater than 100 µM, a TGI (ACHN renal) greater than 100 µM and a TGI (MCF7 breast) greater than 100 µM.
`S=c1[nH]c2ccc(I)cc2c(=S)n1Cc1ccccc1` was tested, and the TGI (NCI-H226 lung) was greater than 100 µM, the TGI (SR leukemia) was 14.9 µM and the TGI (MDA-N) was 56.9 µM. The TGI (OVCAR-8 ovarian) was 53.6 µM, the TGI (HCT-116 colon) was 13.2 µM and the TGI (OVCAR-4 ovarian) was greater than 100 µM. The TGI (DU-145 prostate) was 11.9 µM, the TGI (ACHN renal) was 58.7 µM and the TGI (MCF7 breast) was greater than 100 µM.
`CCOC(=O)N1CCC(=C2c3ccc(Cl)cc3CCc3cccnc32)CC1` was tested, and the TGI (NCI-H226 lung) was 40.6 µM, the TGI (SR leukemia) was 14.2 µM and the TGI (MDA-N) was 16.8 µM. It also gave a TGI (OVCAR-8 ovarian) of 32.5 µM, a TGI (HCT-116 colon) of 32.4 µM and a TGI (OVCAR-4 ovarian) of 17.1 µM. The TGI (DU-145 prostate) was 26.9 µM, the TGI (ACHN renal) was 15.8 µM and the TGI (MCF7 breast) was 23.8 µM.
